Test results published in patent publication US20250009696A1, “METHODS OF CANCER TREATMENT VIA REGULATED FERROPTOSIS” (Memorial Sloan Kettering Cancer Center, priority 2017, published 2025).

What was measured:
[1] = tested on: cells treated with FAC and BSO; assay: Cell swelling and cell lysis (LDH release) in FAC and BSO-induced ferroptosis; format: cell-based; details: for cell lysis / cell rupture (release of lactate dehydrogenase, LDH): 48 hours of treatment with FAC and BSO (400 μM), osmoprotectant 30 mM
Method: The effect on cell lysis is shown by reduced release of lactate dehydrogenase (LDH), a measure of necrosis.
To investigate if the ferroptotic rupture of cells might be an event that is regulated by a pore, experiments were performed with osmo-protectants in the cell culture medium. Osmo-protectants are large osmolytes that when added to sufficient concentrations outside of cells (30 mM), buffer potential ion imbalances caused by pore formation that would otherwise lead to membrane rupture. The loss of ion and small molecule balances across the plasma membrane due to the opening of a pore would lead to hypo-osmotic stress due to the large molecules and organelles that cannot cross the intact membrane.
(§1) The use of osmo-protectants (FIG. 1B) of increasing sizes can indicate the presence of pores in the membrane that would be required for cell rupture.

[2] = Computational analysis of cell death spreading (time-lapse microscopy, random trials); format: cell-based; details: experimentally-induced apoptosis; cell line not stated
Method: Nuclei are circled and color-coded to represent the relative timing of cell death, determined by time-lapse microscopy. The relative positioning of cell deaths occurring in successive frames of a time-lapse movie are calculated by measuring the distance between newly occurring deaths and their nearest neighbor of any previous deaths, for example death 2 to death 1, or distance a. The mean distance of all deaths in a movie is calculated as distances (a+b+c+ . . . +n)/n.
It was observed that ferroptosis involves the spreading of cell death between adjacent cells in cell culture in wave-like or synchronous patterns. […] To study cell death spreading, a computational analysis was designed that allows for quantification of the random or non-random nature of observed patterns of cell death in a population. As shown in FIGS. 2A-2D, this analysis utilizes time-lapse microscopic imaging of cell death, for cells cultured in the presence of Sytox green or Sytox orange dyes (or propidium iodide), which enter the nucleus of necrotic cells and emit green or red fluorescence (FIG. 2A). […] In addition to the actual data set calculated for each field of view, randomized trials are then also performed 1000 times for each microscopic field, to generate a random set of possible mean distances that account for the particular arrangements of cells in each field (FIG. 2B). […]

[3] = tested on: cells treated with FAC and BSO; assay: Spreading of ferroptosis, cell rounding and calcium signal with inhibitors or osmoprotectants; format: cell-based
Method: FIG. 3A depicts images that show cell colony prior to (left) and 12 hours after (right) treatment with liproxstatin-1. Note cell death involving wave-like spreading that was induced by FAC and BSO, and started prior to liproxstatin-1 addition, was inhibited, as cells that were alive (bottom right half of colony) stayed alive for 12 hours.
Right images show computational quantifications of the spreading of cell rounding (top), which remains significant in the presence of PEG1450 (***P=0.004) (see histogram, bottom). Cells are pseudocolored in top image to represent the relative timing of cell rounding.
Relative times are shown as minutes (min).
It was observed that ferroptosis involves a pore-forming activity and, also, a spreading activity. […] As cell rounding or swelling may be associated with calcium influx into cells, cells expressing the genetically-encoded calcium sensor GCaMP, which emits GFP fluorescence upon calcium exposure, were treated with FAC and BSO to induce ferroptosis in the presence of PEG3350.

LNCAP xenografts = assay: PSMA expression in xenografts after daily enzalutamide; format: in vivo, mice; details: 10 mg/kg/day, oral gavage
[4] = tested on: PC-3 prostate cancer cells; assay: Western blot of PSMA and AR expression after enzalutamide exposure in vitro; format: cell-based; details: 10 μM for 15 days
[5] = tested on: LNCAP-AR prostate cancer cells; assay: as above; format: cell-based; details: 10 μM over 15 days
[6] = tested on: LNCAP prostate cancer cells; assay: as above; format: cell-based; details: 10 μM continuously for 15 days
Source text: At the conclusion of exposure, cells were collected and the expression levels of PSMA and AR were examined via Western blot.

HT1080 cells = assay: Cell rupture in response to other inducers of ferroptosis with osmoprotectants; format: cell-based; details: necrotic cell death induced by hydrogen peroxide, FIG. 1F
Source text: as §1

## OC[C@H]1O[C@@](CO)(O[C@H]2O[C@H](CO)[C@@H](O)[C@H](O)[C@H]2O)[C@@H](O)[C@@H]1O [sucrose]
[1]
  cell lysis / cell rupture (release of lactate dehydrogenase, LDH): did not

## OC[C@H]1O[C@H](OC[C@H]2O[C@H](O[C@]3(CO)O[C@H](CO)[C@@H](O)[C@@H]3O)[C@H](O)[C@@H](O)[C@@H]2O)[C@H](O)[C@@H](O)[C@H]1O [raffinose]
[1]
  cell lysis / cell rupture (release of lactate dehydrogenase, LDH): did not

## C[C@@H]1C[C@@H]([C@H](O)CC2CC(=O)NC(=O)C2)C(=O)[C@@H](C)C1 [cyclohexamide]
[2]
  observed mean distance between cell deaths versus random trials: falls within the random trials

## Clc1cccc(CN=C2Nc3ccccc3NC23CCNCC3)c1 [liproxstatin-1]
[3]; FAC and BSO (400 μM) in the presence of the named agent
  spreading of cell rounding / morphological changes: blocked
[3]; FAC and BSO, agent added after initiation of ferroptosis
  wave-like spreading of ferroptosis: disrupted wave-like spreading

## COc1nccnc1NS(=O)(=O)c1ccc(NC(=O)/C=C/c2ccc([N+](=O)[O-])s2)cc1 [necrosulfonamide]
[1]; treatment with inhibitor of MLKL
  ferroptotic cell rupture: did not affect ferroptotic cell rupture

## CNC(=O)c1ccc(N2C(=S)N(c3ccc(C#N)c(C(F)(F)F)c3)C(=O)C2(C)C)cc1F [enzalutamide]
LNCAP xenografts
  PSMA expression in LNCAP xenografts: increase in PSMA expression at Day 5
  PSMA expression in tumor sections (immunofluorescence staining): increase in PSMA expression at Day 5
[4]
  AR expression (Western blot): negative for AR across all tested time points
  PSMA expression (Western blot): lack of PSMA expression at all time points
[5]
  AR expression (Western blot): clear increase in AR expression is observed from Day 3 onward
  PSMA expression (Western blot): time-dependent increase in PSMA expression
[6]
  AR expression (Western blot): transient increase in AR expression is also observed from Day 7 to Day 10
  PSMA expression (Western blot): increase in PSMA expression occurs on, or around, Day 7 of exposure

## OO [hydrogen peroxide]
HT1080 cells
  regulation of necrotic cell death by PEG1450 or PEG3350: did not involve similar regulation
